Data as given in patent publication US10709724B2, “Methods of treating mitochondrial dysfunction” (Ecole Polytechnique Federale de Lausanne (EPFL), priority 2011, dated 2020).
Entries after “also recorded” stand apart in the source; their conditions may differ.

How the values were obtained:
C. elegans = assay: Worm respiration assay (Seahorse XF24); type: in vivo; settings: day 3 adult worms
Protocol: Worm Respiration Assays Oxygen consumption was measured using the Seahorse XF24 equipment (Seahorse Bioscience Inc., North Billerica, Mass.) as described in Yamamoto et al. Typically, 200 animals per conditions were recovered from NGM plates with M9 medium, washed three times in 2 mLM9 to eliminate residual bacteria, and resuspended in 500 μL M9 medium. Worms were transferred in 24-well standard Seahorse plates (#100777-004) (50 worms per well) and oxygen consumption was measured 6 times. Respiration rates were normalized to the number of worms in each individual well. NAD measurement by HPLC For NAD+ quantification, approximately 1000 worms were collected in M9 buffer, washed five times to remove residual bacteria and flash-frozen in liquid nitrogen and stored at −80° C. until analysis. Extraction was started by adding 250 μl of 1.6M perchloric acid on frozen samples, followed by extensive homogenization in a Qiagen tissuelyser, and centrifugation at 20.000 g for 15 min. The supernatant was recovered and neutralized with a 3M potassium carbonate solution. After centrifugation, 100 μl of supernatant was filtered and used for NAD measurement using an HPLC system (Agilent) with a Supelco LC-18-T column (Sigma), as described in Yoshino et al. (Yoshino, K. F. Mills, M. J. Yoon, S. Imai, Nicotinamide Mononucleotide, a Key NAD(+) Intermediate, Treats the Pathophysiology of Diet- and Age-Induced Diabetes in Mice. Cell Metab 14, 528 (2011)).

HEK293T cells = assay: Mitochondrial NAD+ in HEK293T cells; type: cell-based, human; settings: 0.5 mM, 4 hrs
Protocol: NAD^+ NAM Determination. NAD^+ levels in cultured cells were determined using a commercial kit (Enzychrom™, BioAssays Systems, CA). For tissue samples NAD^+ and NAM levels were determined as described in (Sauve et al., 2005). In brief, to a weighed aliquot of frozen pulverized tissue we added as standards, ^18O-NAD^+ (typically 2.00 nmol) and ^18O-NAM (typically 2.00 nmol). 70 L of ice-cold 7% perchloric acid was then added and the sample was vortexed and sonicated three times, then centrifuged. Clear supernatant was removed and neutralized by additions of 3 M NaOH and 1 M phosphate buffer (pH=9), then centrifuged. Clear supernatant was injected onto HPLC C-18 column with 20 mM ammonium acetate eluent to separate NAD^+ and NAM from other cellular components, NAD^+ and NAM peaks (260 nm absorbance) were collected. Collections were lyophilized to dryness and subjected to MALDI-TOF analysis. For NAD^+ measurement, ratio of intensities for m/z=664 and 666 peaks, corresponding to ^16O- and ^18O-NAD^+ isotopomers, was multiplied by 2.00 nmol and then divided by tissue weight to determine NAD+ concentration in the sample. […] Other NAD metabolites were determined as previously described (Yang and Sauve, Synthesis of nictotinamide riboside and derivatives: effective agents for increasing nictinomide adenine dinucleotide concentrations in mammalian cells. J Med Chem 50, 6458-6461 (2006)).

C57Bl/6J mice = assay: Sirtuin activity and mitochondrial biogenesis in tissues after chronic NR feeding; type: in vivo
Protocol: mRNA and mtDNA Analysis. Total RNA was prepared using TRIzol (Invitrogen) according to the manufacturer's instructions. RNA was treated with DNase, and 2 μg of RNA was used for reverse transcription (RT). cDNA was purified on QIAquick PCR cleanup columns (Qiagen, Valencia, Calif., USA). 50× diluted cDNA was used for RT-quantitative PCR (RT-VCR) VCR) reactions (Bai et al., 2007). The RT-qPCR reactions were performed using the Light-Cycler system (Roche Applied Science) and a qPCR Supermix (Qiagen) with the primers for mice summarized in Table 1 and 4, and with the primers for worms summarized on Table 7. mtDNA quantification was performed as described (Lagouge et al., 2006) with the primers indicated in Table 2 and 5.
Immunoprecipitation, SDS-PAGE, Western Blotting. Cells were lysed in lysis buffer (50 mM Tris, […], EDTA 1 mM, NP40 1%, nicotinamide 5 mM, Na-butyrate 1 in M, protease inhibitors pH7.4). Proteins were separated by SDS-PAGE and transferred onto nitrocellulose membranes. The origin of the primary and secondary antibodies used can be found as supplemental experimental procedures. Reactions were developed by enhanced chemiluminescence (Amersham, Little Chalfont, UK), PGC-1α, FOXO1 and Ndufa9 acetylation levels were analyzed by immunoprecipitation from cellular or nuclear lysates of tissues with anti-PGC-1α (Millipore), anti-FOXO1 (Cell Signaling, Danvers, Mass., USA) and anti-Ndufa9 (Abcam) antibody followed by Western blot using an acetyl-lysine antibody (Cell Signaling) that was normalized to total PGC-1a/FOXO1/Ndufa9 levels (Lagouge et al., 2006; Rodgers et al., 2005). In HEK293T cells HA-tagged PGC-1α was overexpressed and was immunoprecipitated using an anti-HA. In C2C12 myotubes, FLAG-HA tagged PGC-1α was introduced through adenoviral delivery 2 days before treatments, then IP was performed using anti-FLAG antibody and samples were processed as described. All blots were quantified by densitometry using ImageJ software. Poly(ADP-Ribose) detection was performed as previously described with slight modifications (Bai et al., PARP-1 inhibition increases mitochondrial metabolism through SIRT1 activation. Cell Metab 13, 461-468. (2011)) Briefly, PAR was detected by using a monoclonal anti-PAR antibody (Alexis, Lausanne Switzerland) by Western blotting of total protein lysates, using either […] of total worm protein lysates, […] of liver protein lysate or 200 g of muscle total protein extracts. PGC-1 acetylation was determined using PGC-1 immunoprecipitates from 2 mg of protein extracts, as described in Canto et al. (Canto et al., AMPK regulates energy expenditure by modulating NAD+ metabolism and SIRT1 activity. Nature 458, 1056 (2009)).
Mitochondrial DNA Measurement The assay was performed as described (Lagouge et al., 2006). DNA. was extracted using the standard proteinase K digestion following phenol-chloroform extraction. Mitochondrial and genomic DNA was determined using specific primers in qPCR reactions (primers summarized in Table 2 and 5.) and was expressed as percentage of WT.
Determination of Protein Acetylation Status PGC-1α, FOXO1 and Ndufa9 acetylation was analyzed by immunoprecipitation of PGC-1, FOXO1 and Nduf9a from nuclear lysates of tissues with anti-PGC-1α (Millipore), anti-FOXO1 (1 mg, Cell Signaling, Danvers, Mass., USA), or Ndufa9 (Abeam) antibody followed by Western blot using an acetyl-lysine antibody (Cell Signaling) that was normalized to total PGC-1α/FOXO1/Ndufa9 (Canto et al., 2009). Tribulin acetylation was assessed by Western blotting of total protein samples by acetylated tubulin-specific antibody (Sigma) that was then normalized for total tubrilin (Santa Cruz).

## NC(=O)c1ccc[n+]([C@@H]2O[C@H](CO)[C@@H](O)[C@H]2O)c1 [NR, nicotinamide riboside]
C. elegans
  oxygen consumption (respiration): increased respiration; also recorded: Oxygen consumption was increased
HEK293T cells
  mitochondrial NAD+ levels in cultured cells: mitochondrial NAD^+ levels were enhanced
C57Bl/6J mice; HFD 16 weeks
  expression of oxidative metabolism regulators and mitochondrial genes in quadriceps muscle: either an elevated expression or a strong tendency towards an increase
  mitochondrial DNA content in muscle: increased in muscle
  mitochondrial proteins (Complex V ATP synthase subunit α, porin) in muscle, liver and BAT: prominent increase in mitochondrial proteins
  mitochondrial proteins in brain or WAT: such change was not observed in brain or WAT
C57Bl/6J mice; HFD 16 weeks, NR 400 mg/kg/day
  acetylation of SIRT1 and SIRT3 targets (FOXO1, SOD2) in skeletal muscle, liver and BAT: prominent deacetylation
C57Bl/6J mice; NR 400 mg/kg/day
  acetylation status of the SIRT2 target tubulin: could not detect changes
